{
  "source": "paper PMC12797228",
  "about": "(ACS Infectious Diseases, 2025)",
  "key": {"[1]": {"molecular_target": "T1, wild-type B. anthracis topoisomerase IV (Bacillus anthracis, UniProt A0A6H3AG07+A0AAC8SCF4)", "T1 sequence (A0A6H3AG07 1-807)": "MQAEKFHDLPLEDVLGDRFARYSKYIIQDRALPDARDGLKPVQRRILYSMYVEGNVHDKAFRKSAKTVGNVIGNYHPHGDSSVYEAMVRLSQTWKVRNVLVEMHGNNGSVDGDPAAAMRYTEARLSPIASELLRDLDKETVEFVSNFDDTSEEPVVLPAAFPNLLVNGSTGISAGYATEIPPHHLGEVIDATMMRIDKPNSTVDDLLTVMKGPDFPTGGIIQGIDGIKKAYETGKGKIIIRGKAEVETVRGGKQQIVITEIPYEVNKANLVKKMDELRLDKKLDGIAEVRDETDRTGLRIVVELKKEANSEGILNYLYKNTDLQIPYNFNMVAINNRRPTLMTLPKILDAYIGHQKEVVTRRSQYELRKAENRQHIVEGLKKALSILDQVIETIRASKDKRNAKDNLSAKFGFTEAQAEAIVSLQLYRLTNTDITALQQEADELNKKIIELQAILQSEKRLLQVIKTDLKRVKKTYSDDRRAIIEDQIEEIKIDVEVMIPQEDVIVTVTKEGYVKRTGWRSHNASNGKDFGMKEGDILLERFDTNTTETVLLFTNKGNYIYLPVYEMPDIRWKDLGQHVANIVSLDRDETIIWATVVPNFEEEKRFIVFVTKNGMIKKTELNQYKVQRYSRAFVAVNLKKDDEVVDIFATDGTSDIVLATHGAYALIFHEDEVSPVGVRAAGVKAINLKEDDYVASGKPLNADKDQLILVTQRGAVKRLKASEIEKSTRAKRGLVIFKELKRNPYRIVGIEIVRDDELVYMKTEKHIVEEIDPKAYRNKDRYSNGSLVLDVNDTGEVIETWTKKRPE", "T1 sequence (A0AAC8SCF4 1-654)": "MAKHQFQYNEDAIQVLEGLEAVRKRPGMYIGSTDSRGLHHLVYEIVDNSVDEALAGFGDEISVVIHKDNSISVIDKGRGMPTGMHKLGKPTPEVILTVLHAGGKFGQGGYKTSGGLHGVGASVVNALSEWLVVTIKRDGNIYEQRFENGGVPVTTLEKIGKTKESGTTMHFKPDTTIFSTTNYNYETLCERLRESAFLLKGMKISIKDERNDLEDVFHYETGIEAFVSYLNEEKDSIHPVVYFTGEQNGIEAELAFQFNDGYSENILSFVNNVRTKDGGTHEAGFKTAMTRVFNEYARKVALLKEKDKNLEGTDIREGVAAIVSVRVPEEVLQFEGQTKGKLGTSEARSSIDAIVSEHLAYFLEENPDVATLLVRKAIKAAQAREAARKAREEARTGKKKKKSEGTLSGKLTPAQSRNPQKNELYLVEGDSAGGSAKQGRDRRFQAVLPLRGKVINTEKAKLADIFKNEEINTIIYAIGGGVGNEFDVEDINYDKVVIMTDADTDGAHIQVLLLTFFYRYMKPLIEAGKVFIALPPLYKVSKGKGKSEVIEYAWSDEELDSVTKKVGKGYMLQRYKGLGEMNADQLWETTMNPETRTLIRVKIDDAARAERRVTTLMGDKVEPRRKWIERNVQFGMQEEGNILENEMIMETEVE", "assay": "biochemical", "settings": "IC50, inhibition of DNA decatenation"}, "[2]": {"test_system": "B. anthracis (Ames strain)", "set-up": "species or system BALB/c mice", "settings": "mouse, in vivo"}, "[3]": {"molecular_target": "T2, wild-type B. anthracis gyrase (Bacillus anthracis, UniProt A0A6H3A7B1+Q9X3Y6)", "T2 sequence (A0A6H3A7B1 1-823)": "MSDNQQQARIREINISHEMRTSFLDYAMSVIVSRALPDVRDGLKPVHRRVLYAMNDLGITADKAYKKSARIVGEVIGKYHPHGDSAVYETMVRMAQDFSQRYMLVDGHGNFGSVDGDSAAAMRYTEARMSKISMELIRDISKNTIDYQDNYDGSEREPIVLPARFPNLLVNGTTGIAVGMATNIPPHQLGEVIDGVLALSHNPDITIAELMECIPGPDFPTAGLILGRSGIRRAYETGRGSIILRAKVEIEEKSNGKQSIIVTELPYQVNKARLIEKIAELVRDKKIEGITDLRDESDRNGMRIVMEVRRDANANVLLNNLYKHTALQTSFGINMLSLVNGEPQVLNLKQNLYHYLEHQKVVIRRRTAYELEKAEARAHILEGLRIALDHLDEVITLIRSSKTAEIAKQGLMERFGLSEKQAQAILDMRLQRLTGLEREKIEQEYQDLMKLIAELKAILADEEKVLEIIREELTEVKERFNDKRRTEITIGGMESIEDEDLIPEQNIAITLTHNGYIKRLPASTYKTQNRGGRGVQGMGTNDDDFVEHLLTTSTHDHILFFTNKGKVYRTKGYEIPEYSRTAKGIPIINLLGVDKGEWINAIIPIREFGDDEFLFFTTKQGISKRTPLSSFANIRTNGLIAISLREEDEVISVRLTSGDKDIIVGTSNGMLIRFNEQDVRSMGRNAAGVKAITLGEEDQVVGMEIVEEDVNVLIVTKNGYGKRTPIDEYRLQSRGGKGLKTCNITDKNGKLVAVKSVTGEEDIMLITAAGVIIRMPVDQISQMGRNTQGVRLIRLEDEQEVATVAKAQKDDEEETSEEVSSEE", "T2 sequence (Q9X3Y6 whole entry)": "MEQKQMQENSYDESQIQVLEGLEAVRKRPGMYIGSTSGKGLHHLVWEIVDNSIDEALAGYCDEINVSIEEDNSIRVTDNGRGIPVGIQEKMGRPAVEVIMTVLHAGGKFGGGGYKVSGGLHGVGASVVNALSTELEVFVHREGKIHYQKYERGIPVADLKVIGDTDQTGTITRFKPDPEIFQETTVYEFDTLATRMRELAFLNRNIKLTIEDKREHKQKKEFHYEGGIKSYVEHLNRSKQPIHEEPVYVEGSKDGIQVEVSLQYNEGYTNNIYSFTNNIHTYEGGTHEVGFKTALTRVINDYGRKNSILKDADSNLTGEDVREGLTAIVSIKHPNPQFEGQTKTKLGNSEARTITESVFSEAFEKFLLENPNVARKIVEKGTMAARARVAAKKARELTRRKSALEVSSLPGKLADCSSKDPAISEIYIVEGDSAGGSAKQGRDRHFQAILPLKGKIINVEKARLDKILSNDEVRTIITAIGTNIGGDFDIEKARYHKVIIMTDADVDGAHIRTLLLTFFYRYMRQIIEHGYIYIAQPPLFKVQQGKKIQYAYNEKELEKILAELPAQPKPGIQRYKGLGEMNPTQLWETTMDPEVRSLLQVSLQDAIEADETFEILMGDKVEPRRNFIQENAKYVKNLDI", "assay": "biochemical", "settings": "IC50, inhibition of DNA supercoiling"}, "B. anthracis": {"test_system": "B. anthracis", "settings": "rabbit, in vivo; cited from earlier work"}, "[4]": {"test_system": "30-strain panel of B. anthracis", "assay": "microbe, parasite or virus in culture", "assay_type": "cell-based, Bacillus anthracis", "settings": "for MIC50 / MIC90: Bacillus anthracis"}, "[5]": {"molecular_target": "T2, wild-type B. anthracis gyrase", "assay": "biochemical", "settings": "EC50 (concentration that induces 50% maximal DNA cleavage)"}, "[6]": {"settings": "female, BALB/c, mouse, in vivo"}, "[7]": {"settings": "mouse, in vivo, po, 100 mg/kg"}, "in vitro": {"assay": "in vitro", "settings": "plasma"}, "in vivo": {"assay": "in vivo", "settings": "female, BALB/c, mouse"}, "[8]": {"molecular_target": "T1, wild-type B. anthracis topoisomerase IV", "assay": "biochemical", "settings": "EC50, DNA cleavage"}},
  "note": "Where “and” joins values, the source holds several entries; their conditions need not be identical. Identical values can stand only once. Like-named read-outs stand apart in the source and are kept apart here.",
  "data": [
    {"smiles": "O=C(O)c1cn(C2CC2)c2cc(N3CCNCC3)c(F)cc2c1=O", "note": "[Ciprofloxacin, ciprofloxacin]", "values": [
      {"measurement": "IC50", "setting": "[1]", "result": "~178000 nM and 178000 nM"},
      {"measurement": "Mice that survived to study termination on day 30 (of 10)", "setting": "[2]", "result": 10},
      {"measurement": "IC50", "setting": "[3]", "result": "~118000 nM and 118000 nM"}
    ]},
    {"smiles": "O=c1ccc2ncc(=O)n3c2n1C[C@H]3CN1CCC(NCc2cc3c(cn2)OCCC3)CC1", "note": "[Gepotidacin, gepotidacin, reference compound]", "values": [
      {"measurement": "IC50", "setting": "[1]", "result": "~200 nM and 200 nM"},
      {"measurement": "Rabbits that survived for at least 30 days", "setting": "B. anthracis", "result": "Ten out of 11"},
      {"measurement": "Range of MIC values", "setting": "[4]", "result": "0.12 to 8", "unit": "µg/mL"},
      {"measurement": "MIC50", "setting": "[4]", "result": 0.5, "unit": "µg/mL"},
      {"measurement": "MIC90", "setting": "[4]", "result": 0.5, "unit": "µg/mL"},
      {"measurement": "EC50", "setting": "[5]", "result": "800 nM and ~800 nM"},
      {"measurement": "IC50", "setting": "[3]", "result": "~23200 nM and 23200 nM"}
    ]},
    {"smiles": "COc1ccc2ncc(F)c(C[C@H](O)[C@H]3OC[C@H](NCc4cnc5c(n4)NC(=O)CO5)CO3)c2n1", "note": "[OSUAB-0284, 6-(((trans-2-((S)-2-(3-fluoro-6-methoxy-1,5-naphthyridin-4-yl)-1-hydroxyethyl)-1,3-dioxan-5-yl)amino)methyl)-2H-pyrazino[2,3-b][1,4]oxazin-3(4H)-one]", "values": [
      {"measurement": "dose-corrected exposure, higher vs lower dose group", "setting": "[6]", "result": 1.5, "unit": "fold"},
      {"measurement": "Lung AUC0-last", "setting": "[6]; iv, 10 mg/kg", "result": "4,830 ng*h/mL"},
      {"measurement": "Lung AUCinf", "setting": "[6]; iv, 10 mg/kg", "result": "5,033 ng*h/mL"},
      {"measurement": "Lung AUC0-last", "setting": "[6]; po, 10 mg/kg", "result": "3,314 ng*h/mL"},
      {"measurement": "Lung AUCinf", "setting": "[6]; po, 10 mg/kg", "result": "3,615 ng*h/mL"},
      {"measurement": "Lung AUC0-last", "setting": "[6]; po, 50 mg/kg", "result": "37,227 ng*h/mL"},
      {"measurement": "Lung AUCinf", "setting": "[6]; po, 50 mg/kg", "result": "44,292 ng*h/mL"},
      {"measurement": "Adverse events or cage-side observations", "setting": "[7]", "result": "No adverse events or cage-side observations were noted"},
      {"measurement": "IC50", "setting": "[1]", "result": "~100 nM and 100 nM"},
      {"measurement": "Range of MIC values", "setting": "[4]", "result": "≤0.03 to 4", "unit": "µg/mL"},
      {"measurement": "MIC50", "setting": "[4]", "result": 0.06, "unit": "µg/mL"},
      {"measurement": "MIC90", "setting": "[4]", "result": 0.25, "unit": "µg/mL"},
      {"measurement": "Lung total bacterial burden and spore counts compared with the ciprofloxacin group", "setting": "[2]", "result": "No significant differences"},
      {"measurement": "Survival", "setting": "[2]", "result": "100% and 90% and 90–100%"},
      {"measurement": "fraction unbound", "setting": "in vitro", "result": 0.31},
      {"measurement": "Kp", "setting": "in vivo", "result": "0.36 to 0.53"},
      {"measurement": "half-life", "setting": "in vivo", "result": 2.6, "unit": "h"},
      {"measurement": "bioavailability", "setting": "in vivo; 10 mg/kg", "result": 80.6, "unit": "%"},
      {"measurement": "AUC(0-inf)", "setting": "in vivo; iv, 10 mg/kg", "result": 11400, "unit": "ng·h/mL"},
      {"measurement": "AUC(0-t)", "setting": "in vivo; iv, 10 mg/kg", "result": 10800, "unit": "ng·h/mL"},
      {"measurement": "Cmax", "setting": "in vivo; iv, 10 mg/kg", "result": 17600, "unit": "ng/mL"},
      {"measurement": "Tmax", "setting": "in vivo; iv, 10 mg/kg", "result": 0.0833, "unit": "h"},
      {"measurement": "half-life", "setting": "in vivo; iv, 10 mg/kg", "result": 2.6, "unit": "h"},
      {"measurement": "AUC(0-inf)", "setting": "in vivo; po, 10 mg/kg", "result": 9160, "unit": "ng·h/mL"},
      {"measurement": "AUC(0-t)", "setting": "in vivo; po, 10 mg/kg", "result": 8470, "unit": "ng·h/mL"},
      {"measurement": "Cmax", "setting": "in vivo; po, 10 mg/kg", "result": 6280, "unit": "ng/mL"},
      {"measurement": "Tmax", "setting": "in vivo; po, 10 mg/kg", "result": 0.25, "unit": "h"},
      {"measurement": "half-life", "setting": "in vivo; po, 10 mg/kg", "result": 2.6, "unit": "h"},
      {"measurement": "AUC(0-inf)", "setting": "in vivo; po, 50 mg/kg", "result": 70200, "unit": "ng·h/mL"},
      {"measurement": "AUC(0-t)", "setting": "in vivo; po, 50 mg/kg", "result": 63000, "unit": "ng·h/mL"},
      {"measurement": "Cmax", "setting": "in vivo; po, 50 mg/kg", "result": 50300, "unit": "ng/mL"},
      {"measurement": "Tmax", "setting": "in vivo; po, 50 mg/kg", "result": 0.25, "unit": "h"},
      {"measurement": "half-life", "setting": "in vivo; po, 50 mg/kg", "result": 2.6, "unit": "h"},
      {"measurement": "EC50", "setting": "[5]", "result": "700 nM and ~700 nM"},
      {"measurement": "IC50", "setting": "[3]", "result": "~6300 nM and 6300 nM"},
      {"measurement": "EC50", "setting": "[8]", "result": "40 nM and ~40 nM"}
    ]}
  ]
}
